These results are taken from EPA's ToxValDB 9.5 (doi:10.2903/j.efsa.2016.4610).

In one data set the test system is Cyprinodon variegatus. Particulars: acute; duration: 96 hours; mortality.
For another data set, the system named is Pimephales promelas. Particulars: chronic/long-term; duration: 35 days; reproduction.
For the next data set, the system named is Anas platyrhynchos. Conditions: chronic/long-term.
Another data set has as its system Xenopus laevis. Conditions: chronic/long-term; duration: 21 days; growth.
A further data set has as its system Poephila guttata. Conditions: acute; oral; unspecified; mortality.
A further data set concerns Folsomia candida. Conditions: chronic/long-term; duration: 28 days; reproduction.
The next data set has as its system Apis mellifera. Conditions: acute, mortality.
For data set [1] the following is noted: chronic.
The test system of another data set is Typhlodromus pyri. Nature of the data set: LR50; higher = less toxic. Particulars: chronic/long-term; duration: 14 days; mortality.
A further data set has as its system Aphidius rhopalosiphi. Nature of the data set: LR50; higher = less toxic. Particulars: acute; duration: 48 hours; mortality.
Another data set deals with Tagia sp. Conditions: chronic/long-term; growth.

In brackets after ≈: the same amount, converted by molar mass.

Usually LC50 stands for the concentration lethal to half of the exposed cells or organisms. Broadly, the NOAEL is the highest tested level that showed no adverse finding. In the data set with Cyprinodon variegatus, `CC(=NC#N)N(C)Cc1ccc(Cl)nc1` [Acetamiprid] came in with a 50% lethal concentration (LC50) of 100 µg/mL (≈ 449 µM). Also, the NOEC in the data set with Pimephales promelas was 9.4 mg/L; with Xenopus laevis it was 2.6 mg/L; in the data set with Folsomia candida it was 0.27 mg/kg; in data set [1], 0.0011 mg/L. The LD50 is 146 mg/kg-day in the data set with Rattus norvegicus (acute, oral, mortality); 5.7 mg/kg-day in the data set with Poephila guttata; 9.26 µg/piece in the data set with Apis mellifera (dermal); 8.85 µg/piece with Apis mellifera (oral, unspecified). Moreover, the no observed adverse effect level (NOAEL) with Rattus norvegicus (developmental, development) was determined as 2.5 mg/kg-day; with Anas platyrhynchos it was 9.5 mg/kg-day. In addition, the LR50 in the data set with Typhlodromus pyri was determined as 29.7 g/ha; in the data set on Aphidius rhopalosiphi it was 2 g/ha.

Turning to `CC(=N)N(C)Cc1ccc(Cl)nc1` [Acetamiprid metabolite (IM-1-5)], the NOEC turned out to be 62.5 mg/kg with Tagia sp. and 12.5 mg/kg with Folsomia candida.
